Measurements reported in the supplement of paper PMC10307832.

What was measured:
Test in all cases: relative viability (nuclei count vs DMSO), 5 days (fraction); higher = more cells survive
[1] = compound: C1COCCN1C2=NC(=NC3=C2OC4=C3C=CC=N4)C5=CC(=CC=C5)NC(=O)C6=CN=C(C=C6)N
How it was run: (§1)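 Viability is treated-well nuclei as a fraction of vehicle-well nuclei, reported as the median across plates. Before counting, lung cancer cell lines were kept overnight at 37 °C in 1536-well plates, pinned with five √10-spaced library-drug doses on vehicle-anchored plates, and left 5 days without medium change, then fixed, permeabilised and Hoechst-stained in one step, imaged at 4× and counted by MetaXpress. A plate passed only if control CV was below 25% and at least one doubling occurred.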

SGI-1776 = compound: CN1CCC(CNc2ccc3ncc(-c4cccc(OC(F)(F)F)c4)n3n2)CC1 [SGI-1776]
How it was run: as §1

Entinostat = compound: Nc1ccccc1NC(=O)c1ccc(CNC(=O)OCc2cccnc2)cc1 [Entinostat]
How it was run: as §1

Cell Line | relative viability ([1]; 0.02 µM) | relative viability ([1]; 0.06325 µM) | relative viability ([1]; 0.2 µM) | relative viability ([1]; 0.6325 µM) | relative viability ([1]; 2 µM) | relative viability (SGI-1776; 0.08 µM) | relative viability (SGI-1776; 0.8 µM) | relative viability (SGI-1776; 2.53 µM) | relative viability (SGI-1776; 8 µM) | relative viability (Entinostat; 0.02 µM) | relative viability (Entinostat; 0.06325 µM) | relative viability (Entinostat; 0.2 µM) | relative viability (Entinostat; 0.6325 µM) | relative viability (Entinostat; 2 µM)
201T | 0.963 | 0.994 | 0.985 | 1 | 0.897 | 1.01 | 0.991 | 0.964 | 0.891 | 1.04 | 1.04 | 1.03 | 0.712 | 0.624
A549 | 1.05 | 1.1 | 0.97 | 0.991 | 0.471 | 0.992 | 1.01 | 0.959 | 0.795 | 1.02 | 1.03 | 0.901 | 0.842 | 0.508
A-427 | 0.971 | 0.994 | 0.909 | 0.857 | 0.704 | 1.08 | 1.08 | 0.975 | 0.84 | 1.1 | 1.12 | 0.978 | 0.878 | 0.619
ABC-1 | 1.09 | 0.879 | 0.83 | 1.1 | 0.927 | 1.02 | 0.916 | 0.835 | 0.897 | 1.01 | 1.05 | 1.15 | 0.808 | 0.398
BEN | 1.03 | 0.917 | 1.02 | 0.934 | 0.837 | 0.984 | 0.955 | 0.819 | 0.812 | 0.97 | 1.04 | 0.835 | 0.653 | 0.357
CAL-12T | 0.937 | 1.05 | 0.972 | 1.02 | 0.788 | 1.06 | 1.14 | 0.913 | 0.996 | 1.04 | 1.05 | 1.2 | 0.982 | 0.691
COR-L23 | 0.981 | 1.2 | 1.18 | 1.09 | 0.681 | 1.06 | 1.07 | 1.05 | 0.883 | 1 | 1.02 | 0.904 | 0.555 | 0.227
COR-L 105 | 0.868 | 0.717 | 0.751 | 0.695 | 0.591 | 1.09 | 1.01 | 0.949 | 0.722 | 0.947 | 1.14 | 1.06 | 0.747 | 0.371
Calu-6 | 1.05 | 1.04 | 1.01 | 0.998 | 0.685 | 1.06 | 1.02 | 0.976 | 0.852 | 1.02 | 1.02 | 1.02 | 0.761 | 0.544
ChaGo-K-1 | 0.949 | 1.07 | 0.897 | 1.01 | 0.837 | 1.06 | 1.01 | 0.949 | 0.855 | 1.04 | 0.934 | 1.11 | 0.961 | 0.881
EBC-1 | 0.911 | 1.16 | 0.936 | 0.964 | 0.576 | 1.04 | 0.952 | 0.971 | 0.67 | 1.06 | 1.02 | 0.865 | 0.306 | 0.165
EKVX | 1.02 | 1.07 | 0.963 | 1.01 | 0.825 | 1.12 | 1.1 | 0.989 | 0.895 | 1.02 | 1.11 | 0.894 | 0.686 | 0.444
EMC-BAC-2 | 1.05 | 0.972 | 0.912 | 0.92 | 0.885 | 1.05 | 1.06 | 0.973 | 0.87 | 1.18 | 0.965 | 0.91 | 0.598 | 0.398
EPLC-272H | 0.907 | 0.987 | 0.889 | 0.715 | 0.717 | 1.05 | 1.1 | 1.29 | 0.766 | 0.985 | 0.91 | 0.883 | 0.406 | 0.296
H3255 | 0.944 | 0.956 | 0.945 | 0.951 | 0.8 | 1.07 | 1.04 | 1.04 | 0.829 | 0.98 | 0.915 | 0.764 | 0.535 | 0.369
HARA | 1.06 | 0.834 | 1.02 | 0.976 | 0.908 | 1.02 | 1.13 | 1 | 0.75 | 0.955 | 1.06 | 1.18 | 0.805 | 0.488
HCC-15 | 1.03 | 1.09 | 0.971 | 0.966 | 0.75 | 1.04 | 1.1 | 0.989 | 0.833 | 0.939 | 0.962 | 0.899 | 0.457 | 0.333
HCC-44 | 0.986 | 0.919 | 0.97 | 1.07 | 0.959 | 1.02 | 0.957 | 0.93 | 0.962 | 0.99 | 0.858 | 0.773 | 0.414 | 0.275
HCC-78 | 0.935 | 1.06 | 0.966 | 0.892 | 0.832 | 1.09 | 1.04 | 0.975 | 0.866 | 0.991 | 1.09 | 0.65 | 0.467 | 0.343
HCC-366 | 1.03 | 1.07 | 1.05 | 1.04 | 0.738 | 0.957 | 1.02 | 0.989 | 1.02 | 1.03 | 1.09 | 0.943 | 0.515 | 0.154
HCC-827 | 1.03 | 1.07 | 1.07 | 1.1 | 0.941 | 1.08 | 1.09 | 1.13 | 0.968 | 1.01 | 0.986 | 0.954 | 0.657 | 0.535
HOP-62 | 0.974 | 1.15 | 1.09 | 0.961 | 0.762 | 1.09 | 0.956 | 1.05 | 0.998 | 1.05 | 0.974 | 0.97 | 0.633 | 0.356
IA-LM | 0.895 | 0.924 | 0.716 | 0.847 | 0.442 | 0.999 | 1.02 | 0.97 | 0.87 | 0.975 | 1.01 | 1.08 | 0.887 | 0.651
LC-2-ad | 0.965 | 1.06 | 0.937 | 0.932 | 0.788 | 0.984 | 1.05 | 1.09 | 0.815 | 1.02 | 0.972 | 0.942 | 0.48 | 0.315
